The values that follow come from ChEMBL document CHEMBL3632576, “Tacrine-Trolox Hybrids: A Novel Class of Centrally Active, Nonhepatotoxic Multi-Target-Directed Ligands Exerting Anticholinesterase and Antioxidant Activities with Low In Vivo Toxicity” (J Med Chem, 2015).

SMILES strings stand for the structures. Active and inactive are the calls of the source. No cut-off for these calls is given here. A value given as a limit tells only on which side of the number the result lay.

One data set concerns the target Cholinesterase (Homo sapiens, UniProt P06276).
Data set [1] concerns the target T1, Acetylcholinesterase (Homo sapiens, UniProt P22303).
Description: Inhibition of human recombinant AChE using acetylthiocholine as substrate preincubated for 5 mins followed by substrate addition measured every 2 mins by Ellman's method
The next data set is described as follows: in vitro. The settings on record: human, HepG2 cells.
Data set [2] in a line: Acute toxicity in im dosed albino Wistar rat assessed as mortality measured within 48 hrs. The format is organism-based. As to conditions: in vivo.
A short description of data set [3]: Permeability of the compound at 50 to 100 uM after 18 hrs by PAMPA. The format is physicochemical. As to conditions: read-out: permeability.
The subject of data set [4] is Liver microsome. The data set is described as follows: Retention time of the compound in human liver microsomes by LC-MS/MS analysis. The format is ADME.
Data set [5] concerns HepG2. The experiment in a line: Hepatotoxicity in human HepG2 cells assessed as cell viability at 512 uM after 24 hrs by MTT assay. The format is toxicity, cell-based. The settings on record: hepg2, 24 h.
Data set [6] deals with HepG2. The data set is described as follows: Hepatotoxicity in human HepG2 cells assessed as cell viability at 0.5 uM after 24 hrs by MTT assay. It is filed as toxicity, cell-based. The settings on record: hepg2, 24 h.
Data set [7] deals with HepG2. The data set is described as follows: Hepatotoxicity in human HepG2 cells assessed as cell viability at 2 uM after 24 hrs by MTT assay. It is filed as toxicity, cell-based. The settings on record: hepg2, 24 h.
Data set [8] addresses T1, Acetylcholinesterase. The data set is described as follows: Competitive inhibition of human recombinant AChE using acetylthiocholine as substrate preincubated for 5 mins followed by substrate addition measured every 2 mins by Lineweaver-Burk plot analysis.
A short description of data set [9]: Metabolic stability in human liver microsomes assessed as compound remaining at 1 ug/ml after 1 hr by LC-MS/MS analysis. The format is ADME. As to conditions: read-out: Stability.
Data set [10] in a line: Metabolic stability in human liver microsomes assessed as compound remaining at 20 ug/ml after 1 hr by LC-MS/MS analysis. It is filed as ADME. The settings on record: read-out: Stability.
The nature of data set [11]: Metabolic stability in human liver microsomes assessed as compound remaining at 50 ug/ml after 1 hr by LC-MS/MS analysis. The format is ADME. As to conditions: read-out: Stability.
For data set [12], the system named is Liver microsome. The experiment in a line: Drug metabolism in human liver microsomes assessed as decrease in 8-(6-chloro-1,2,3,4-tetrahydroacridin-9-ylamino)octanoic acid AUC after 1 hr by extracted ion chromatogram analysis. It is filed as ADME.
Data set [13] has as its target T1, Acetylcholinesterase. As to conditions: 100 to 562 nM.

T1 sequence (P22303 whole entry): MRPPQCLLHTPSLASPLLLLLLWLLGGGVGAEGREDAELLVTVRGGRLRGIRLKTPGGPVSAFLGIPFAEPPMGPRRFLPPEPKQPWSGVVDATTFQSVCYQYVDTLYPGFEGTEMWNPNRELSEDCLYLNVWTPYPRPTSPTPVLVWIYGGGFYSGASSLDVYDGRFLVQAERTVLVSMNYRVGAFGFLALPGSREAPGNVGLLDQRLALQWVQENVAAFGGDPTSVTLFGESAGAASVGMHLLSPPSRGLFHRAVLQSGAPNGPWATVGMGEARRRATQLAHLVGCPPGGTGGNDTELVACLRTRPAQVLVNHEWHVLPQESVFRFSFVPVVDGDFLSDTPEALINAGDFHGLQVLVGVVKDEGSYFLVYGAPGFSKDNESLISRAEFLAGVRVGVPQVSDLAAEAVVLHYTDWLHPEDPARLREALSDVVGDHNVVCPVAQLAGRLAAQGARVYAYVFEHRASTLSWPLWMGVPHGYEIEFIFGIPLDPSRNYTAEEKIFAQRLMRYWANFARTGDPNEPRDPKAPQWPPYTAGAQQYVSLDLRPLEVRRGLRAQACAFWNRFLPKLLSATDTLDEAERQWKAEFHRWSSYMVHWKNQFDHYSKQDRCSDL
Chain of Cholinesterase (P06276 whole entry): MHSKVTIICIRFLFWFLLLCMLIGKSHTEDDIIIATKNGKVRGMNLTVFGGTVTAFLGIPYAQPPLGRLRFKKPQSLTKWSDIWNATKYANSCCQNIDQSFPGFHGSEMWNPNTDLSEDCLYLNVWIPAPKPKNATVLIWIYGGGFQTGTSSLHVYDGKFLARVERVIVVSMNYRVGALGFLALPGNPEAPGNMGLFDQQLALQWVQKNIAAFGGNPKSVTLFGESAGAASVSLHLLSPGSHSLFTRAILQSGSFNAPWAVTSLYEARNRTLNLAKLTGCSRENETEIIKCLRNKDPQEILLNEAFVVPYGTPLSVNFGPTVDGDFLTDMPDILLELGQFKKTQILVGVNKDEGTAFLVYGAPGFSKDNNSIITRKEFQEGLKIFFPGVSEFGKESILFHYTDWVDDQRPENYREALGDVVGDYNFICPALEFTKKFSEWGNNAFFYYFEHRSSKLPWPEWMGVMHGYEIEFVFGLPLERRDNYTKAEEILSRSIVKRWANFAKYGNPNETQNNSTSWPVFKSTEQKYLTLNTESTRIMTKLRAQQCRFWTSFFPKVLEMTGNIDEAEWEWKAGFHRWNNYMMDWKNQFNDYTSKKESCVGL
Description for in vitro: Hepatotoxicity in human HepG2 cells assessed as cell viability after 24 hrs by MTT assay

With `COc1ccc2nc3c(c(NCCCCCCCCNC(=O)C4(C)CCc5c(C)c(O)c(C)c(C)c5O4)c2c1)CCCC3` (stereo not given), the EC50 is greater than 100 µM. The molecule further had an IC50 at Cholinesterase of 1.53 µM. At Acetylcholinesterase [1], this molecule came in with a 50% inhibitory concentration (IC50) of 3480 nM. 0.92 µM corresponded to half-maximal inhibition in the data set “in vitro” (IC50 at 24 h).
For `COc1ccc2nc3c(c(NCCNC(=O)C4(C)CCc5c(C)c(O)c(C)c(C)c5O4)c2c1)CCCC3` (stereo not given), the EC50 stood at 95.9 µM. This molecule displayed an IC50 against Cholinesterase of 1.3 µM. The same molecule registered an IC50 against Acetylcholinesterase [1] of 4360 nM. Further, in “in vitro”, the IC50 at 24 h was found to be 4.9 µM.
For `Cc1c(C)c2c(c(C)c1O)CCC(C)(C(=O)NCCCNc1c3c(nc4cc(Cl)ccc14)CCCC3)O2` (stereo not given), the EC50 was determined as 48.8 µM. For the same molecule, the IC50 at Cholinesterase came out at 0.77 µM. On Acetylcholinesterase [1], the IC50 was determined as 80 nM.
Molecule `Cc1c(C)c2c(c(C)c1O)CCC(C)(C(=O)NCCCCCCNc1c3c(nc4ccccc14)CCCC3)O2` (stereo not given) gave an EC50 of 61.8 µM. At Cholinesterase, this molecule gave an IC50 of 0.19 µM. In addition, on Acetylcholinesterase [1], the IC50 was determined as 360 nM. In addition, in the data set “in vitro”, the IC50 at 24 h stood at 2 µM.
Molecule `Cc1c(C)c2c(c(C)c1O)CCC(C)(C(=O)NCCCCCCNc1c3c(nc4cc(Cl)ccc14)CCCC3)O2` (stereo not given) came in with an EC50 of 48.8 µM. Moreover, the IC50 on Cholinesterase amounted to 0.4 µM. On Acetylcholinesterase [1], this molecule yielded an IC50 of 100 nM. Besides, inhibition in the data set “in vitro” was half-maximal at 0.7 µM (IC50 at 24 h).
`Cc1c(C)c2c(c(C)c1O)CCC(C)(C(=O)NCCCCCCCCNc1c3c(nc4ccccc14)CCCC3)O2` (stereo not given) had an EC50 of 66.5 µM. This molecule also gave an IC50 against Cholinesterase of 0.16 µM. The same molecule registered an IC50 against Acetylcholinesterase [1] of 690 nM.
Molecule `Cc1c(C)c2c(c(C)c1O)CCC(C)(C(=O)NCCCCCCCNc1c3c(nc4ccccc14)CCCC3)O2` (stereo not given) returned an EC50 greater than 100 µM. The molecule also registered an IC50 at Cholinesterase of 0.13 µM. This molecule had an IC50 on Acetylcholinesterase [1] of 690 nM.
As for `COc1ccc2nc3c(c(NCCCCNC(=O)C4(C)CCc5c(C)c(O)c(C)c(C)c5O4)c2c1)CCCC3` (stereo not given), the EC50 was greater than 100 µM. At Cholinesterase, this molecule gave an IC50 of 0.29 µM. Moreover, on Acetylcholinesterase [1], 7210 nM corresponded to half-maximal inhibition (IC50).
The molecule `Nc1c2c(nc3cc(Cl)ccc13)CCCC2` yielded an EC50 greater than 100 µM. In addition, the LD50 at 48 h in data set [2] is 7.5 mg/kg. Also, the IC50 at 24 h in “in vitro” was 7.13 µM.
`Cc1c(C)c2c(c(C)c1O)CCC(C)(C(=O)NCCNc1c3c(nc4ccccc14)CCCC3)O2` (stereo not given) showed an EC50 greater than 100 µM. For the same molecule, in data set [3], the Papp at 18 h, 100 µM worked out at 4.4 ×10⁻⁶ cm/s. In addition, inhibition against Cholinesterase was half-maximal at 0.06 µM (IC50). Inhibition at Acetylcholinesterase [1] was half-maximal at 6970 nM (IC50).
With `CC1=C(C)C(=O)C(CCC(C)(O)C(=O)NCCCCCCCCNc2c3c(nc4cc(Cl)ccc24)CCCC3)=C(C)C1=O` (stereo not given), in the data set on Liver microsome [4], the Retention_time was 7.35 min.
Regarding `COc1ccc2nc3c(c(NCCCCCCCNC(=O)C4(C)CCc5c(C)c(O)c(C)c(C)c5O4)c2c1)CCCC3` (stereo not given), the midpoint of the response, the EC50, lay at 59 µM. Moreover, the IC50 against Cholinesterase is 0.7 µM. Moreover, the IC50 on Acetylcholinesterase [1] turned out to be 6720 nM.
`COc1ccc2nc3c(c(NCCCCCNC(=O)C4(C)CCc5c(C)c(O)c(C)c(C)c5O4)c2c1)CCCC3` (stereo not given): the EC50 was determined as 62.7 µM. This molecule also showed an IC50 on Cholinesterase of 0.4 µM. The molecule further had an IC50 against Acetylcholinesterase [1] of 13300 nM.
`COc1ccc2nc3c(c(N)c2c1)CCCC3` gave an EC50 greater than 100 µM. For the same molecule, in “in vitro”, the IC50 at 24 h was 11.5 µM.
In turn, `Cc1c(C)c2c(c(C)c1O)CCC(C)(C(=O)O)O2` (stereo not given) [TROLOX] registered an EC50 of 16.2 µM. Further, the Activity result in the data set on HepG2 [5] is listed as “Non-toxic”. The molecule further came in with an IC50 against Cholinesterase greater than 1000 µM. For the same molecule, on Acetylcholinesterase [1], inhibition was half-maximal at 186000 nM (IC50).
`Cc1c(C)c2c(c(C)c1O)CCC(C)(C(=O)NCCCCCCCNc1c3c(nc4cc(Cl)ccc14)CCCC3)O2` (stereo not given) showed an EC50 of 44.2 µM. In addition, the Activity entry in the data set with HepG2 [6] is “Non-toxic”. On Cholinesterase, this molecule had an IC50 of 0.7 µM. For the same molecule, the IC50 against Acetylcholinesterase [1] turned out to be 80 nM.
In turn, `O=C(O)CCCCCCCNc1c2c(nc3cc(Cl)ccc13)CCCC2` registered a Retention_time in the data set on Liver microsome [4] of 6.52 min.
In the data set with Liver microsome [4], `CC1=C(C)C(=O)C(CCC(C)(O)C(=O)NC(O)CCCCCCCNc2c3c(nc4cc(Cl)ccc24)CCCC3)=C(C)C1=O` (stereo not given) yielded a Retention_time of 7.1 min.
As to `Cc1c(C)c2c(c(C)c1O)CCC(C)(C(=O)NCCCCCNc1c3c(nc4cc(Cl)ccc14)CCCC3)O2` (stereo not given), the response was half-maximal at 49.8 µM (EC50). On Cholinesterase, this molecule gave an IC50 of 0.13 µM. This molecule also displayed an IC50 at Acetylcholinesterase [1] of 120 nM.
For the molecule `Cc1c(C)c2c(c(C)c1O)CCC(C)(C(=O)NCCCCNc1c3c(nc4cc(Cl)ccc14)CCCC3)O2` (stereo not given), the EC50 came out at 50.8 µM. The molecule further registered an IC50 at Cholinesterase of 0.09 µM. The molecule also came in with an IC50 against Acetylcholinesterase [1] of 150 nM.
In the same order, the values of `Cc1c(C)c2c(c(C)c1O)CCC(C)(C(=O)NCCCCNc1c3c(nc4ccccc14)CCCC3)O2` (stereo not given) are greater than 100 µM, 0.08 µM and 950 nM.
`COc1ccc2nc3c(c(NCCCNC(=O)C4(C)CCc5c(C)c(O)c(C)c(C)c5O4)c2c1)CCCC3` (stereo not given) gave a 50% effective concentration (EC50) greater than 100 µM. In the data set with HepG2 [7], the Activity result is given as “Non-toxic”. Also, on Cholinesterase, half-maximal inhibition (IC50) required 0.62 µM. Besides, the IC50 against Acetylcholinesterase [1] worked out at 1540 nM.
`COc1ccc2nc3c(c(NCCCCCCNC(=O)C4(C)CCc5c(C)c(O)c(C)c(C)c5O4)c2c1)CCCC3` (stereo not given) registered an EC50 of 58.8 µM. On Cholinesterase, it took 0.69 µM to reach half-maximal inhibition (IC50). The molecule further had an IC50 against Acetylcholinesterase [1] of 6610 nM.
For `Cc1c(C)c2c(c(C)c1O)CCC(C)(C(=O)NCCCCCCCCNc1c3c(nc4cc(Cl)ccc14)CCCC3)O2` (stereo not given), the EC50 stood at 44.1 µM. Moreover, the Ki at Acetylcholinesterase [8] came to 49.5 nM. Also, the Papp at 18 h, 100 µM in [3] was determined as 5 ×10⁻⁶ cm/s. In the data set on HepG2 [6], the Activity result is on record as “Non-toxic”. For the same molecule, in data set [9], the remaining at 1 h, 1 ug/ml stood at 58.2%. For the same molecule, the remaining at 1 h, 20 ug/ml in [10] was 85.5%. Also, the remaining at 1 h, 50 ug/ml in [11] came to 85.4%. Also, the Retention_time in the data set with Liver microsome [4] is 7.52 min. Moreover, in the data set with Liver microsome [12], the Drug metabolism is on record as 3.1%. In addition, the LD50 at 48 h in [2] is greater than 500 mg/kg. The molecule further yielded an IC50 against Cholinesterase of 0.54 µM. Also, half-maximal inhibition against Acetylcholinesterase [1] (IC50) required 80 nM. Moreover, the inhibition result at Acetylcholinesterase [13] was “Active”.
Consider `OCCCCCCCCNc1c2c(nc3cc(Cl)ccc13)CCCC2`, for which the Retention_time in the data set on Liver microsome [4] turned out to be 6.56 min.
Molecule `Cc1c(C)c2c(c(C)c1O)CCC(C)(C(=O)NCCCNc1c3c(nc4ccccc14)CCCC3)O2` (stereo not given) showed a 50% effective concentration (EC50) of 51.3 µM. Moreover, the IC50 at Cholinesterase came out at 0.08 µM. Moreover, inhibition at Acetylcholinesterase [1] was half-maximal at 260 nM (IC50). Besides, in “in vitro”, the IC50 at 24 h was 13.2 µM.
On to `Cc1c(C)c2c(c(C)c1O)CCC(C)(C(=O)NCCNc1c3c(nc4cc(Cl)ccc14)CCCC3)O2` (stereo not given), for which the response was half-maximal at 67.8 µM (EC50). The IC50 against Cholinesterase amounted to 0.02 µM. Moreover, on Acetylcholinesterase [1], 210 nM corresponded to half-maximal inhibition (IC50).
The molecule `Cc1c(C)c2c(c(C)c1O)CCC(C)(C(=O)NCCCCCNc1c3c(nc4ccccc14)CCCC3)O2` (stereo not given) gave an EC50 of 65.6 µM. This molecule also showed an IC50 against Cholinesterase of 0.56 µM. The same molecule came in with an IC50 against Acetylcholinesterase [1] of 620 nM. Besides, 8.7 µM corresponded to half-maximal inhibition in the data set “in vitro” (IC50 at 24 h).
